In ChEMBL document CHEMBL5724914, “Linking interpersonal differences in gut microbiota composition and drug biotransformation activity” (2024):

Tests used:
[1] = (§1) The drug is tested on Z-029 corresponding to rat gut metagenome with ENA study accession number: PRJEB37062 and ENA sample accession number: ERS12561828 for biotransformation under anaerobic condition. The drug concentrations were measured over 9 timepoints collected between 0 and 24 hours of incubation by liquid-chromatography-coupled mass spectrometry (LC–MS); conditions: 2 µM
[2] = as §1, with “Z-019” for “Z-029”, “ERS12561818” for “ERS12561828”; conditions: 2 µM
[3] = as §1, with “on Z-011” for “on Z-029”, “to mouse” for “to rat”, “number: ERS12561811” for “number: ERS12561828”; conditions: 2 µM
[4] = as §1, with “Z-010” for “Z-029”, “to” for “to rat gut”, “ERS12561810” for “ERS12561828”; conditions: 2 µM
[5] = as §1, with “Z-007” for “Z-029”, “ERS12561807” for “ERS12561828”; conditions: 2 µM
[6] = as §1, with “on Z-003” for “on Z-029”, “to pig” for “to rat”, “number: ERS12561803” for “number: ERS12561828”; conditions: 2 µM
[7] = as §1, with “on WLS-310” for “on Z-029”, “to human” for “to rat”, “number: ERS12561785” for “number: ERS12561828”; conditions: 2 µM
[8] = as §1, with “on WLS-090” for “on Z-029”, “to human” for “to rat”, “number: ERS12561753” for “number: ERS12561828”; conditions: 2 µM
[9] = as §1, with “on WLS-086” for “on Z-029”, “to human” for “to rat”, “number: ERS12561752” for “number: ERS12561828”; conditions: 2 µM
[10] = as §1, with “on WLS-077” for “on Z-029”, “to human” for “to rat”, “number: ERS12561750” for “number: ERS12561828”; conditions: 2 µM
[11] = as §1, with “on WLS-039” for “on Z-029”, “to human” for “to rat”, “number: ERS12561746” for “number: ERS12561828”; conditions: 2 µM
[12] = human gut metagenome, 24 h, 2 µM
[13] = human gut metagenome, 24 h, 2 µM; remark: listed apart in the source
[14] = human gut metagenome, 24 h, 2 µM; remark: listed apart in the source
[15] = human gut metagenome, 24 h, 2 µM; remark: listed apart in the source
[16] = human gut metagenome, 24 h, 2 µM; remark: listed apart in the source
[17] = human gut metagenome, 24 h, 2 µM; remark: listed apart in the source
[18] = human gut metagenome, 24 h, 2 µM; remark: listed apart in the source
[19] = human gut metagenome, 24 h, 2 µM; remark: listed apart in the source
[20] = human gut metagenome, 24 h, 2 µM; remark: listed apart in the source
Also: call rule not given here.

SMILES	Bacterial Biotransformation [1]	Bacterial Biotransformation [2]	Bacterial Biotransformation [3]	Bacterial Biotransformation [4]	Bacterial Biotransformation [5]	Bacterial Biotransformation [6]	Bacterial Biotransformation [7]	Bacterial Biotransformation [8]	Bacterial Biotransformation [9]	Bacterial Biotransformation [10]	Bacterial Biotransformation [11]	Bacterial Biotransformation [12]	Bacterial Biotransformation [13]	Bacterial Biotransformation [14]	Bacterial Biotransformation [15]	Bacterial Biotransformation [16]	Bacterial Biotransformation [17]	Bacterial Biotransformation [18]	Bacterial Biotransformation [19]	Bacterial Biotransformation [20]
CCN1CCCC1CNC(=O)c1cc(S(=O)(=O)CC)c(N)cc1OC (stereo not given) [AMISULPRIDE]	Compound NOT metabolized	Compound NOT metabolized	Compound NOT metabolized	Compound NOT metabolized	Compound NOT metabolized	Compound metabolized	Compound metabolized	Compound metabolized	Compound metabolized	Compound NOT metabolized	Compound NOT metabolized	Compound NOT metabolized	Compound NOT metabolized	Compound NOT metabolized	Compound metabolized	Compound metabolized	Compound metabolized	Compound NOT metabolized	Compound NOT metabolized	Compound metabolized
CC(C)NCC(O)COc1ccc(CC(N)=O)cc1 (stereo not given) [ATENOLOL]	Compound NOT metabolized	Compound NOT metabolized	Compound NOT metabolized	Compound NOT metabolized	Compound NOT metabolized	Compound NOT metabolized	Compound metabolized	Compound metabolized	Compound metabolized	Compound metabolized	Compound NOT metabolized	Compound NOT metabolized	Compound NOT metabolized	Compound NOT metabolized	Compound NOT metabolized	Compound NOT metabolized	Compound metabolized	Compound NOT metabolized	Compound metabolized	Compound metabolized
CN(C)CCC=C1c2ccccc2COc2ccccc21 [DOXEPIN]	Compound NOT metabolized	Compound NOT metabolized	Compound NOT metabolized	Compound NOT metabolized	Compound NOT metabolized	Compound NOT metabolized	Compound metabolized	Compound metabolized	Compound NOT metabolized	Compound NOT metabolized	Compound metabolized	Compound NOT metabolized	Compound NOT metabolized	Compound metabolized	Compound NOT metabolized	Compound NOT metabolized	Compound metabolized	Compound NOT metabolized	Compound NOT metabolized	Compound metabolized
CC(C)c1c(CN(C)C(C)Cc2ccccc2)n(C)n(-c2ccccc2)c1=O (stereo not given) [FAMPROFAZONE]	Compound NOT metabolized	Compound NOT metabolized	Compound metabolized	Compound metabolized	Compound metabolized	Compound metabolized	Compound metabolized	Compound metabolized	Compound metabolized	Compound metabolized	Compound metabolized	Compound metabolized	Compound metabolized	Compound metabolized	Compound metabolized	Compound metabolized	Compound metabolized	Compound metabolized	Compound metabolized	Compound metabolized
N=C(N)NC(=O)Cc1c(Cl)cccc1Cl [GUANFACINE]	Compound NOT metabolized	Compound NOT metabolized	Compound NOT metabolized	Compound NOT metabolized	Compound NOT metabolized	Compound NOT metabolized	Compound NOT metabolized	Compound NOT metabolized	Compound NOT metabolized	Compound NOT metabolized	Compound NOT metabolized	Compound NOT metabolized	Compound NOT metabolized	Compound NOT metabolized	Compound NOT metabolized	Compound NOT metabolized	Compound NOT metabolized	Compound NOT metabolized	Compound NOT metabolized	Compound NOT metabolized

Now from value to compound:

Bacterial Biotransformation [1]	Bacterial Biotransformation [2]	Bacterial Biotransformation [3]	Bacterial Biotransformation [4]	Bacterial Biotransformation [5]	Bacterial Biotransformation [6]	Bacterial Biotransformation [7]	Bacterial Biotransformation [8]	Bacterial Biotransformation [9]	Bacterial Biotransformation [10]	Bacterial Biotransformation [11]	Bacterial Biotransformation [12]	Bacterial Biotransformation [13]	Bacterial Biotransformation [14]	Bacterial Biotransformation [15]	Bacterial Biotransformation [16]	Bacterial Biotransformation [17]	Bacterial Biotransformation [18]	Bacterial Biotransformation [19]	Bacterial Biotransformation [20]	SMILES
Compound NOT metabolized	Compound NOT metabolized	Compound metabolized	Compound metabolized	Compound NOT metabolized	Compound NOT metabolized	Compound metabolized	Compound metabolized	Compound metabolized	Compound metabolized	Compound metabolized	Compound metabolized	Compound metabolized	Compound metabolized	Compound metabolized	Compound metabolized	Compound metabolized	Compound metabolized	Compound metabolized	Compound metabolized	CC(=O)OCC(=O)[C@@]1(OC(C)=O)[C@@H](C)C[C@H]2[C@@H]3C[C@H](F)C4=CC(=O)C=C[C@]4(C)[C@@]3(F)[C@@H](O)C[C@@]21C [DIFLORASONE DIACETATE]
Compound NOT metabolized	Compound NOT metabolized	Compound NOT metabolized	Compound metabolized	Compound NOT metabolized	Compound metabolized	Compound metabolized	Compound NOT metabolized	Compound metabolized	Compound metabolized	Compound metabolized	Compound NOT metabolized	Compound metabolized	Compound metabolized	Compound metabolized	Compound metabolized	Compound metabolized	Compound metabolized	Compound NOT metabolized	Compound metabolized	C[C@]12CCC(=O)C=C1[C@@H]1C[C@@H]1[C@H]1[C@@H]3[C@@H]4C[C@@H]4[C@@]4(CCC(=O)O4)[C@@]3(C)CC[C@@H]12 [DROSPIRENONE]
Compound NOT metabolized	Compound NOT metabolized	Compound metabolized	Compound metabolized	Compound metabolized	Compound metabolized	Compound metabolized	Compound metabolized	Compound metabolized	Compound metabolized	Compound metabolized	Compound metabolized	Compound metabolized	Compound metabolized	Compound metabolized	Compound metabolized	Compound metabolized	Compound NOT metabolized	Compound metabolized	Compound metabolized	C#C[C@]1(OC(C)=O)CC[C@H]2[C@@H]3CCC4=C[C@@H](OC(C)=O)CC[C@@H]4[C@H]3CC[C@@]21C [ETHYNODIOL DIACETATE]
